This is an account of results in paper PMC6504873, “High-throughput screening of the Plasmodium falciparum cGMP-dependent protein kinase identified a thiazole scaffold which kills erythrocytic and sexual stage parasites” (Scientific Reports, 2019).

≈ marks a conversion by molar mass, not a printed value.

Data set [1] is described as follows: Aqueous kinetic solubility assay (CAD). Type of data set: physicochemical. To be noted: several values in a cell = replicates. The method, then: […] of 10 mM DMSO compound solution is diluted to 100 μl with pH7.4 phosphate buffered saline, equilibrated for 1 hour at room temperature and filtered through Millipore MultiscreenHTS-PCF filter plates (MSSL BPC). The filtrate is quantified by suitably calibrated Charged Aerosol Detector[56].

Data set [2] in a line: PFI. It counts as physicochemical. The method, then: Dose response assays were performed in duplicate on WT PfPKG, HuPKGIα and a mock assay performed in the absence of enzyme (the counterscreen). Comparison of the PfPKG and HuPKGIα IC50 values gave information on selectivity and the counterscreen identified luminescent false positive compounds (see Materials and Methods). Cytotoxicity assays were also performed using a human hepatoma cell line (HepG2)[30]. […] This set of compounds was clustered by similarity using a complete-linkage algorithm and a threshold of 0.55[31]. A total of 79 clusters and 54 singletons were obtained.

The target in data set [3] is AuroraB (Homo sapiens, UniProt Q96GD4). As to the kind of experiment: Preliminary safety test on human AuroraB kinase. Type of data set: biochemical. The method, then:
We explored the binding mode by also testing compounds on the gatekeeper mutant enzyme TQ PfPKG. […] A preliminary safety test was performed on human AuroraB and LCK kinases which often underpin toxicity issues. […] Further assays for compound characterization included determination of solubility and cytotoxicity (HepG2 inhibition).

The mark [4] stands for this setting: phosphate buffered saline, pH 7.4, aqueous buffer, kinetic from dmso stock.

Chain of AuroraB (Q96GD4 whole entry): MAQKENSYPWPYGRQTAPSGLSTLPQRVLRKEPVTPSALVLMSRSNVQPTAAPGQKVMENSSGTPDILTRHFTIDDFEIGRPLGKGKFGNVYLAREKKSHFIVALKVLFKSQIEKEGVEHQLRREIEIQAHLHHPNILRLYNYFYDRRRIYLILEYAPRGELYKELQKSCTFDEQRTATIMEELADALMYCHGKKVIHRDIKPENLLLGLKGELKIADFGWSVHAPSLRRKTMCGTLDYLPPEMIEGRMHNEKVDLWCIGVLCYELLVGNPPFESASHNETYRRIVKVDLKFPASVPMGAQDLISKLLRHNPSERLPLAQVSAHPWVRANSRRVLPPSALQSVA

As a reminder, the solubility is the dissolved amount per volume that the medium holds. For orientation: IC50 means the concentration needed to halve the response being measured. Regarding `COc1ccc(-c2c(-c3cccc(C(=O)N4CCN(C)CC4)c3)oc3ncnc(N)c23)cc1` [Compound 7], the concentration in solution in data set [1] (setting [4]) (solubility at 1 h) was 180 µM (≈ 79.8 µg/mL). The PFI in data set [2] is on record as 6.6. For the same compound, in data set [3], the IC50 came to 3.2 µM.
With `COc1cc(CS(C)(=O)=O)ccc1Nc1nc(Nc2cc(F)ccc2C(N)=O)c2cc[nH]c2n1` [Compound 10], the PFI in data set [2] is 7.3. In addition, in data set [3], the IC50 is more than 31.6 µM.
Turning to `O=C(c1cccc(OCc2cccnc2)c1)N1CCc2sccc2C1CN1CCCCC1` (stereo not drawn) [Compound 14], the solubility at 1 h in data set [1] (setting [4]) was 168 µM (≈ 75.2 µg/mL). In data set [2], this compound registered a PFI of 6.9. This compound displayed an IC50 in data set [3] of more than 31.6 µM.
The matching figures for `CNS(=O)(=O)c1cccc(Nc2ccnc(Nc3cccc(S(=O)(=O)NC)c3)n2)c1` [Compound 6]: 180 µM (≈ 80.7 µg/mL), 6.4 and 0.0631 µM.
For the compound `O=C(N[C@@H](CO)c1ccccc1)c1ccc2cncc(-c3cn[nH]c3)c2n1` [Compound 11], the concentration in solution in data set [1] (setting [4]) (solubility at 1 h) was 4 µM (≈ 1.44 µg/mL). This compound yielded a PFI in data set [2] of 5.9. Further, the IC50 in data set [3] turned out to be 0.2 µM.
Regarding `COc1cccc(Nc2nc(-c3ccncc3)cc(N3CCN(C)CC3)n2)c1` [Compound 9], in data set [1] (setting [4]), the solubility at 1 h turned out to be 82 µM (≈ 30.9 µg/mL). This compound also gave a PFI in data set [2] of 6.6. In addition, the IC50 in data set [3] is more than 31.6 µM.
For the compound `Nc1ccc2c(-c3ccncc3)c(-c3ccc(Cl)c(O)c3)[nH]c2n1` [Compound 15], the PFI in data set [2] stood at 6.1. This compound registered an IC50 in data set [3] of 4 µM.
The matching figures for `NCCNCc1ccc(-c2cc3ccncc3cc2OC2CCNCC2)s1` [Compound 12]: 2.6 and 10 µM.
Regarding `Cc1ccc(S(C)(=O)=O)cc1Nc1nccc(-c2sc(CC(N)=O)nc2-c2ccccc2)n1` [Compound 3], the solubility at 1 h is 138 µM (≈ 66.2 µg/mL) in data set [1] (setting [4]) and 124 µM (≈ 59.5 µg/mL) in data set [1]. Moreover, the PFI in data set [2] is reported as 7.3. Besides, the half-inhibitory concentration (IC50) in data set [3] is more than 31.6 µM.
`CC(C)(CN)c1cc(-c2ccc(Cl)c(O)c2)c(-c2ccncc2)o1` [Compound 4] returned a solubility at 1 h in data set [1] (setting [4]) of 252 µM (≈ 86.4 µg/mL). In data set [2], this compound displayed a PFI of 6.1. Moreover, the half-maximal inhibitory concentration (IC50) in data set [3] is more than 31.6 µM.
The corresponding values for `CCn1cc(-c2ccncn2)c(-c2cccc(NS(=O)(=O)c3cc(F)ccc3F)c2)n1` [Compound 2] are 412 µM (≈ 182 µg/mL), 8.0 and more than 31.6 µM.
The corresponding values for `CNCCOc1cnc(-c2ccoc2C)c(-c2ccc3cnccc3c2)c1` [Compound 13] are 418 µM (≈ 150 µg/mL), 6.1 and more than 31.6 µM.
The matching figures for `Nc1nc(Nc2cccc3cnccc23)nn1C(=O)C1CCCCC1` [Compound 16]: 69 µM (≈ 23.2 µg/mL), 7.6 and 4 µM.
Compound `CCn1c(-c2nonc2N)nc2c(-c3ccccc3)ncc(CN(C)C3CCN(C)CC3)c21` [Compound 5] registered a PFI in data set [2] of 7.7. Besides, the 50% inhibitory concentration (IC50) in data set [3] is 12.6 µM.
The compound `COc1ccc(CCNC(=O)CSc2ncnc3[nH]ncc23)cc1OC` [Compound 8] returned a solubility at 1 h in data set [1] (setting [4]) of 254 µM (≈ 94.9 µg/mL). In addition, the PFI in data set [2] worked out at 5.3. In data set [3], this compound showed an IC50 of more than 31.6 µM.
